Assay results as given in patent US20230364070A1, “PYRROLO[3,2-C]PYRIDIN-4-ONE DERIVATIVES USEFUL IN THE TREATMENT OF CANCER” (Scorpion Therapeutics, Inc., priority 2020, published 2023).
pIC50: −log10 of the molar value.

How the values were obtained:
Assay type in all cases: cell-based
pEGFR in CUTO14 cells = target: T1, pEGFR in CUTO14 cells (Homo sapiens, UniProt P00533, DUP767-769); test: Inhibitor activity on EGFR phosphorylation (pEGFR AlphaLISA, 2 h), CUTO14 cells
T1 construct: endogenous in cells; host or cells: CUTO14 cells
T1 sequence (P00533 with tags, fused parts or gaps DUP767-769): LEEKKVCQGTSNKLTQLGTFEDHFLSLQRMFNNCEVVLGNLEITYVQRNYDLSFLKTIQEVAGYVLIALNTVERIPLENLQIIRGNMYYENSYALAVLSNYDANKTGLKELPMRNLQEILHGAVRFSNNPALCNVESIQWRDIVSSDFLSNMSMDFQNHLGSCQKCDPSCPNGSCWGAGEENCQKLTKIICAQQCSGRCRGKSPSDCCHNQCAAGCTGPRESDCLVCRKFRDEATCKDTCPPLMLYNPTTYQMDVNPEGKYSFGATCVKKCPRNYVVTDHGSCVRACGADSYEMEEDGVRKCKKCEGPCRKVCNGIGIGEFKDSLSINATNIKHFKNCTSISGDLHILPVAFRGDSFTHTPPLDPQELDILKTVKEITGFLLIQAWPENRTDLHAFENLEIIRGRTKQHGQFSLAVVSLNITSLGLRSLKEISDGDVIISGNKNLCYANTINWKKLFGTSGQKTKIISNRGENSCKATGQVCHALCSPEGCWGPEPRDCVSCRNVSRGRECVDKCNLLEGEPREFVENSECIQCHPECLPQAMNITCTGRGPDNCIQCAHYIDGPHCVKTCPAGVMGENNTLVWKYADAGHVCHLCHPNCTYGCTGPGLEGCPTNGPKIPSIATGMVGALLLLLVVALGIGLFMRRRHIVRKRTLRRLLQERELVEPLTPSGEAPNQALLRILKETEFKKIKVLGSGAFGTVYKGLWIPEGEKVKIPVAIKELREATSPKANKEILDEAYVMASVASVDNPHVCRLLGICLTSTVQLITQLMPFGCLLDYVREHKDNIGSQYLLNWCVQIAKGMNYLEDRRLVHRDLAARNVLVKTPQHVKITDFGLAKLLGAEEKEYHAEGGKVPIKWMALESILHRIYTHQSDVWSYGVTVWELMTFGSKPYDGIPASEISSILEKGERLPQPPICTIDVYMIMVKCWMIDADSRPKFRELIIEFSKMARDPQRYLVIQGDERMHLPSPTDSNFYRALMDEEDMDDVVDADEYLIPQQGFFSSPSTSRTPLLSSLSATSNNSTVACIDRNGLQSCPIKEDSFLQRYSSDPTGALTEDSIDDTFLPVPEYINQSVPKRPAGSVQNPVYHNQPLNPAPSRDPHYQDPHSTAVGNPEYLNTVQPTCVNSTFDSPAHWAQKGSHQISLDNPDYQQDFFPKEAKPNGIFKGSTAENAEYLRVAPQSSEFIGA
Procedure: CUTO14 cells were obtained from Dr. Robert C. Doebele at the University of Colorado.
Shake 350 rpm for 1 hr in the dark • 3.4 Prepare donor mix under low light conditions prior to use. Dispense 5 μL of donor mix to all the wells. Mix well on the shaker, seal and wrap in aluminum foil and incubate 1.5 hrs at room temperature in the dark • 3.5 Transfer 18.5 μL mixture to OptiPlate 384, and read using an Envision.

[1] = target: T2, Ba/F3 cells with EGFR exon 20 NPG Ins D770_N771 (Homo sapiens, UniProt P00533, INS770NPG); test: EGFR activity: Ba/F3 cell viability (CellTiter-Glo, 72 h), EGFR exon 20 NPG insertion; settings: EGFR exon 20 NPG Ins D770_N771, cell viability, read-out: BaF3 NPG IC50
T2 construct: expressed in transfected cells; host or cells: Ba/F3 (murine pro-B cells), retroviral transduction, puromycin selection, IL3-independent pool
T2 sequence (P00533 with tags, fused parts or gaps INS770NPG): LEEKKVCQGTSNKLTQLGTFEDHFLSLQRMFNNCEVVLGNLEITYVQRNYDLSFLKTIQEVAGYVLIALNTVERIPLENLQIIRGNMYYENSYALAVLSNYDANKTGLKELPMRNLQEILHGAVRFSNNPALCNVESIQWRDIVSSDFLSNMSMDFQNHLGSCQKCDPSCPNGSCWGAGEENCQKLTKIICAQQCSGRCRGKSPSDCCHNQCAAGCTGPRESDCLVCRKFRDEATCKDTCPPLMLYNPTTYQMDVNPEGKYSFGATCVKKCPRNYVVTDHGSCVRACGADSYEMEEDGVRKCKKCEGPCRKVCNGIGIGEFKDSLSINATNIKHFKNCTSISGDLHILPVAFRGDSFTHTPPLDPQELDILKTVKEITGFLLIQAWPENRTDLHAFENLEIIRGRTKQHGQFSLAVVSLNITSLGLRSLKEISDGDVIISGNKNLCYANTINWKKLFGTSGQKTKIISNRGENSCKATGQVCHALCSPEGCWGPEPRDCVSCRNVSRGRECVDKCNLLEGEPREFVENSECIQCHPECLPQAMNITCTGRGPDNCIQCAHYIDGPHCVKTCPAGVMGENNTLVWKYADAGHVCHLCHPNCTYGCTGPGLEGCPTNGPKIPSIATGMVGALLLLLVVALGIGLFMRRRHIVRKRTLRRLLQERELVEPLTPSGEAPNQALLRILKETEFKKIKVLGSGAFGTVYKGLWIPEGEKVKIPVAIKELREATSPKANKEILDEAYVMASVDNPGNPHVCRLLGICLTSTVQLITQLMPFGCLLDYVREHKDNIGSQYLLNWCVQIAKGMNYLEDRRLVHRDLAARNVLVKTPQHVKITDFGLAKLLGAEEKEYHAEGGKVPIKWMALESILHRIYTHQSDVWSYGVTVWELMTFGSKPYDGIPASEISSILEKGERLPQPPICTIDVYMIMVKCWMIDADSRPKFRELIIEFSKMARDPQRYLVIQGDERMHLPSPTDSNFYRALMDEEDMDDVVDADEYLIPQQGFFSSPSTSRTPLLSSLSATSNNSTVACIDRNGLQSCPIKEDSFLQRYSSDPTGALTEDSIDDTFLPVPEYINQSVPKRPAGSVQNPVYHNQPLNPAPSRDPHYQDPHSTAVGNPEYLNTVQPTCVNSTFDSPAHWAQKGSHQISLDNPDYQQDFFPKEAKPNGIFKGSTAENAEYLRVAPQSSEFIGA

Ba/F3 cells with EGFR WT = target: T3, Ba/F3 cells with EGFR WT (Homo sapiens, UniProt P00533); test: EGFR activity: Ba/F3 cell viability (CellTiter-Glo, 72 h), EGFR WT; settings: read-out: BaF3 WT IC50
T3 construct: expressed in transfected cells; host or cells: Ba/F3 (murine pro-B cells), retroviral transduction, puromycin selection, maintained with EGF
T3 sequence (P00533 25-1210): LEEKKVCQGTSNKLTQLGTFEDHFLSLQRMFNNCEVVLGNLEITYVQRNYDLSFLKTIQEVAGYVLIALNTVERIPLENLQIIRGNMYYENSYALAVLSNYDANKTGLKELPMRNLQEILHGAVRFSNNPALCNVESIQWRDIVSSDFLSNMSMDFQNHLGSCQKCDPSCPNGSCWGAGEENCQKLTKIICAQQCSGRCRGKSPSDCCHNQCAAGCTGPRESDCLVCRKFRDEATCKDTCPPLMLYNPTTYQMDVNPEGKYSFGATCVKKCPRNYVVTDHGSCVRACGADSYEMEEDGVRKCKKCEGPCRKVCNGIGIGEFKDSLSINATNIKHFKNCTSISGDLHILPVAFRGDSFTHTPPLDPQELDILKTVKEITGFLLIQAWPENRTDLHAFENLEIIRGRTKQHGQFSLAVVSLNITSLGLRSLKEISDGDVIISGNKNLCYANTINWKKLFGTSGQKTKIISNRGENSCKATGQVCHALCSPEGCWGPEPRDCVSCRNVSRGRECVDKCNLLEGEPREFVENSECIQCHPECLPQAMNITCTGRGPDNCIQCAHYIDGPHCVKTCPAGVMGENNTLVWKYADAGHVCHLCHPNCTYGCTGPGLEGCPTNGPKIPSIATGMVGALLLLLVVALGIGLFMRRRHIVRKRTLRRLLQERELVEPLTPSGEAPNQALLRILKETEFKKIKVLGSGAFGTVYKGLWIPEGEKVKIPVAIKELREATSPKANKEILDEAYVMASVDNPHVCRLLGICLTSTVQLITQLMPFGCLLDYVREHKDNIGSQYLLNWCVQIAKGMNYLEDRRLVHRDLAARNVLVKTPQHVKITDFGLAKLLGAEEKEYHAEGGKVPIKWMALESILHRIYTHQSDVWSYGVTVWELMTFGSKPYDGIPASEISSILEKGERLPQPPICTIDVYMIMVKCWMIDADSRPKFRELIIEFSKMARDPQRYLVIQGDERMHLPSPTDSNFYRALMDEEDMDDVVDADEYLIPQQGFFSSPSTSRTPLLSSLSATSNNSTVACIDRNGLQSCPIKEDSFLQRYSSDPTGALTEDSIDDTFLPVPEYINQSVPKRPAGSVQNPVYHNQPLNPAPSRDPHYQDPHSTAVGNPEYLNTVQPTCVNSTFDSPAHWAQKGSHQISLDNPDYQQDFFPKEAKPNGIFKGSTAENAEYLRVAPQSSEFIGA

[2] = target: T4, Ba/F3 cells with EGFR exon 20 ASV Ins V769_D770 (Homo sapiens, UniProt P00533, INS769ASV); test: EGFR activity: Ba/F3 cell viability (CellTiter-Glo, 72 h), EGFR exon 20 ASV insertion; settings: EGFR exon 20 ASV Ins V769_D770, cell viability, read-out: BaF3 ASV IC50
T4 construct: expressed in transfected cells; host or cells: Ba/F3 (murine pro-B cells), retroviral transduction, puromycin selection, IL3-independent pool
T4 sequence (P00533 with tags, fused parts or gaps INS769ASV): as the sequence (P00533 with tags, fused parts or gaps DUP767-769) above

Compound: C=CC(=O)N1[C@@H](COc2cnccc2-c2[nH]c3c(c2Nc2cccc(F)c2OC)C(=O)NCC3)C[C@H]1C (relative stereo) [compound 332]
- pIC50 (pEGFR in CUTO14 cells): > 7.00

Compound: C=CC(=O)N1CC(C)(C)C1C#Cc1cnccc1-c1[nH]c2c(c1Nc1cccc(Cl)c1OC)C(=O)NCC2 (single isomer, unassigned) [compound 233]
- pIC50 (pEGFR in CUTO14 cells): > 7.00

Compound: C=CC(=O)N1CC(C)(C)C1C#Cc1cnccc1-c1[nH]c2c(c1Nc1cccc(F)c1OC)C(=O)NCC2 (single isomer, unassigned) [compound 249]
- pIC50 (pEGFR in CUTO14 cells): > 7.00

Compound: C=CC(=O)NC1(C#Cc2cnccc2-c2[nH]c3c(c2Nc2cccc(Cl)c2OC)C(=O)NCC3)CCOC1 (single isomer, unassigned) [compound 322]
- pIC50 (pEGFR in CUTO14 cells): > 7.00

Compound: C=CC(=O)N1CCC1(C)COc1cnccc1-c1[nH]c2c(c1Nc1cccc(F)c1CC)C(=O)NCC2 (single isomer, unassigned) [compound 359]
- pIC50 (pEGFR in CUTO14 cells): > 7.00

Compound: C=CC(=O)N1CCC1(C)COc1cnccc1-c1[nH]c2c(c1Nc1cccc(Cl)c1OC)C(=O)NCC2 (single isomer, unassigned) [compound 511]
- pIC50 (pEGFR in CUTO14 cells): > 7.00

Compound: C=CC(=O)N1CC(C)(C)C1COc1cnccc1-c1[nH]c2c(c1Nc1cccc(Cl)c1OC)C(=O)NCC2 (single isomer, unassigned) [compound 513]
- pIC50 (pEGFR in CUTO14 cells): > 7.00

Compound: C=CC(=O)NC1(C#Cc2cnccc2-c2[nH]c3c(c2Nc2cccc(F)c2OC)C(=O)NCC3)CC1 [compound 206, N-{1-[2-(4-{3-[(3-fluoro-2-methoxyphenyl)amino]-4-oxo-1H,5H,6H,7H-pyrrolo[3,2-c]pyridin-2-yl}pyridin-3-yl)ethynyl]cyclopropyl}prop-2-enamide]
- pIC50 (pEGFR in CUTO14 cells): > 7.00

Compound: Cc1c(F)cccc1Nc1c(-c2ccncc2OC[C@@H]2CCCN2C(=O)/C=C/CN(C)C)[nH]c2c1C(=O)NCC2 [compound 217, 2-(3-{[(2S)-1-[(2E)-4-(dimethylamino)but-2-enoyl]pyrrolidin-2-yl]methoxy}pyridin-4-yl)-3-[(3-fluoro-2-methylphenyl)amino]-1H,5H,6H,7H-pyrrolo[3,2-c] pyridin-4-one]
- pIC50 (pEGFR in CUTO14 cells): > 7.00

Compound: C=CC(=O)N1CC(C)(C)[C@H]1C#Cc1cnccc1-c1[nH]c2c(c1Nc1cccc(Cl)c1OC)C(=O)NCC2 [compound 232, 3-[(3-chloro-2-methoxyphenyl)amino]-2-(3-{2-[(2R)-3,3-dimethyl-1-(prop-2-enoyl)azetidin-2-yl]ethynyl}pyridin-4-yl)-1H,5H,6H,7H-pyrrolo[3,2-c]pyridin-4-one]
- pIC50 (pEGFR in CUTO14 cells): > 7.00

Compound: C=CC(=O)N1CC(C)(C)C[C@@H]1C#Cc1cnccc1-c1[nH]c2c(c1Nc1cccc(F)c1OC)C(=O)NCC2 [compound 253, 2-(3-{2-[(2R)-4,4-dimethyl-1-(prop-2-enoyl)pyrrolidin-2-yl]ethynyl}pyridin-4-yl)-3-[(3-fluoro-2-methoxyphenyl)amino]-1H,5H,6H,7H-pyrrolo[3,2-c]pyridin-4-one]
- pIC50 (pEGFR in CUTO14 cells): > 7.00

Compound: C=CC(=O)N(C)C(C)(C)C#Cc1cnccc1-c1[nH]c2c(c1Nc1cccc(F)c1OC)C(=O)NCC2 [compound 259, N-[4-(4-{3-[(3-fluoro-2-methoxyphenyl)amino]-4-oxo-1H,5H,6H,7H-pyrrolo[3,2-c]pyridin-2-yl}pyridin-3-yl)-2-methylbut-3-yn-2-yl]-N-methylprop-2-enamide]
- pIC50 (pEGFR in CUTO14 cells): > 7.00

Compound: C=CC(=O)NC1(C#Cc2cnccc2-c2[nH]c3c(c2Nc2cccc(F)c2OC)C(=O)NCC3)COC1 [compound 263]
- pIC50 (pEGFR in CUTO14 cells): > 7.00

Compound: C=CC(=O)N1[C@H]2CC[C@H](C2)[C@@H]1COc1cnccc1-c1[nH]c2c(c1Nc1cccc(Cl)c1OC)C(=O)NCC2 [compound 274, 3-[(3-chloro-2-methoxyphenyl)amino]-2-(3-{[(1S,3R,4R)-2-(prop-2-enoyl)-2-azabicyclo[2.2.1]heptan-3-yl]methoxy}pyridin-4-yl)-1H,5H,6H,7H-pyrrolo[3,2-c]pyridin-4-one]
- pIC50 (pEGFR in CUTO14 cells): > 7.00

Compound: CC#CC(=O)N1CC[C@H]1COc1cnccc1-c1[nH]c2c(c1Nc1cccc(Cl)c1OC)C(=O)NCC2 [compound 288, 2-(3-{[(2S)-1-(but-2-ynoyl)azetidin-2-yl]methoxy}pyridin-4-yl)-3-[(3-chloro-2-methoxyphenyl)amino]-1H,5H,6H,7H-pyrrolo[3,2-c]pyridin-4-one]
- pIC50 (pEGFR in CUTO14 cells): > 7.00

Compound: CC#CC(=O)N1CC[C@@H]1COc1cnccc1-c1[nH]c2c(c1Nc1cccc(F)c1OC)C(=O)NCC2 [compound 289, 2-(3-{[(2R)-1-(but-2-ynoyl)azetidin-2-yl]methoxy}pyridin-4-yl)-3-[(3-fluoro-2-methoxyphenyl)amino]-1H,5H,6H,7H-pyrrolo[3,2-c]pyridin-4-one]
- pIC50 (pEGFR in CUTO14 cells): > 7.00

Compound: CC#CC(=O)N1CCC[C@]1(C)C#Cc1cnccc1-c1[nH]c2c(c1Nc1cccc(F)c1OC)C(=O)NCC2 [compound 291, 2-(3-{2-[(2R)-1-(but-2-ynoyl)-2-methylpyrrolidin-2-yl]ethynyl}pyridin-4-yl)-3-[(3-fluoro-2-methoxyphenyl)amino]-1H,5H,6H,7H-pyrrolo[3,2-c]pyridin-4-one]
- pIC50 (pEGFR in CUTO14 cells): > 7.00

Compound: C=C(F)C(=O)N1CC[C@H]1COc1cnccc1-c1[nH]c2c(c1Nc1cccc(F)c1OC)C(=O)NCC2 [compound 296, 3-[(3-fluoro-2-methoxyphenyl)amino]-2-(3-{[(2S)-1-(2-fluoroprop-2-enoyl)azetidin-2-yl]methoxy}pyridin-4-yl)-1H,5H,6H,7H-pyrrolo[3,2-c]pyridin-4-one]
- pIC50 (pEGFR in CUTO14 cells): > 7.00

Compound: CC#CC(=O)NC(C)(C)C#Cc1cnccc1-c1[nH]c2c(c1Nc1cccc(F)c1OC)C(=O)NCC2 [compound 302, N-[4-(4-{3-[(3-fluoro-2-methoxyphenyl)amino]-4-oxo-1H,5H,6H,7H-pyrrolo[3,2-c]pyridin-2-yl}pyridin-3-yl)-2-methylbut-3-yn-2-yl]but-2-ynamide]
- pIC50 (pEGFR in CUTO14 cells): > 7.00

Compound: C=CC(=O)N1CCOC[C@]1(C)C#Cc1cnccc1-c1[nH]c2c(c1Nc1cccc(Cl)c1OC)C(=O)NCC2 [compound 461]
- pIC50 [1]: > 7.00
- pIC50 (Ba/F3 cells with EGFR WT): 6.00 to 7.00
- pIC50 [2]: > 7.00

Compound: COc1c(Cl)cccc1Nc1c(-c2ccncc2C#C[C@H]2CN(C)CCO2)[nH]c2c1C(=O)NCC2 [compound 495]
- pIC50 [1]: > 7.00
- pIC50 (Ba/F3 cells with EGFR WT): 6.00 to 7.00
- pIC50 [2]: > 7.00

Compound: Cc1c(F)cccc1Nc1c(-c2ccncc2C#CC(C)(C)C)[nH]c2c1C(=O)NCC2 [compound 499]
- pIC50 [1]: > 7.00
- pIC50 (Ba/F3 cells with EGFR WT): < 6.00
- pIC50 [2]: > 7.00

Compound: COc1c(Cl)cccc1Nc1c(-c2ccncc2C#CC2CCCC2)[nH]c2c1C(=O)NCC2 [compound 526]
- pIC50 [1]: > 7.00
- pIC50 (Ba/F3 cells with EGFR WT): 6.00 to 7.00
- pIC50 [2]: > 7.00

Compound: C=C(CN(C)C)C(=O)NC(C)(C)C#Cc1cnccc1-c1[nH]c2c(c1Nc1cccc(Cl)c1OC)C(=O)NCC2 [compound 574]
- pIC50 [1]: > 7.00
- pIC50 (Ba/F3 cells with EGFR WT): > 7.00
- pIC50 [2]: > 7.00

Compound: C=C(CN(C)C)C(=O)NC(C)(C)C#Cc1cnccc1-c1[nH]c2c(c1Nc1cccc(F)c1OC)C(=O)NCC2 [compound 575]
- pIC50 [1]: > 7.00
- pIC50 (Ba/F3 cells with EGFR WT): > 7.00
- pIC50 [2]: > 7.00

Compound: C=CC(=O)N[C@H](C#Cc1cnccc1-c1[nH]c2c(c1Nc1cccc(Cl)c1OC)C(=O)NCC2)CC [compound 581]
- pIC50 [1]: > 7.00
- pIC50 (Ba/F3 cells with EGFR WT): 6.00 to 7.00
- pIC50 [2]: > 7.00

Compound: C=CC(=O)N[C@@H](C#Cc1cnccc1-c1[nH]c2c(c1Nc1cccc(Cl)c1OC)C(=O)NCC2)CC [compound 582]
- pIC50 [1]: > 7.00
- pIC50 (Ba/F3 cells with EGFR WT): < 6.00
- pIC50 [2]: > 7.00

Compound: COc1c(F)cccc1Nc1c(-c2ccncc2C#C[C@H]2CCN2C(=O)/C=C/CN(C)C)[nH]c2c1C(=O)NCC2 [compound 593]
- pIC50 [1]: > 7.00
- pIC50 (Ba/F3 cells with EGFR WT): 6.00 to 7.00
- pIC50 [2]: > 7.00

Compound: COc1c(F)cccc1Nc1c(-c2ccncc2C#C[C@@H]2CCN2C(=O)/C=C/CN(C)C)[nH]c2c1C(=O)NCC2 [compound 594]
- pIC50 [1]: > 7.00
- pIC50 (Ba/F3 cells with EGFR WT): < 6.00
- pIC50 [2]: > 7.00

Compound: COc1c(Cl)cccc1Nc1c(-c2ccncc2C#C[C@@]2(C)CCCN2C(=O)/C=C/CNC2COC2)[nH]c2c1C(=O)NCC2 [compound 595]
- pIC50 [1]: > 7.00
- pIC50 (Ba/F3 cells with EGFR WT): < 6.00
- pIC50 [2]: 6.00 to 7.00

Compound: COc1c(Cl)cccc1Nc1c(-c2ccncc2C#C[C@@]2(C)CCCN2C(=O)/C=C/CN2CC(F)(F)C2)[nH]c2c1C(=O)NCC2 [compound 603]
- pIC50 [1]: 6.00 to 7.00
- pIC50 (Ba/F3 cells with EGFR WT): < 6.00
- pIC50 [2]: 6.00 to 7.00

Compound: CC#CC(=O)N1CC[C@@H]1COc1cnccc1-c1[nH]c2cc[nH]c(=O)c2c1Nc1cccc(Cl)c1OC [compound 630]
- pIC50 [1]: > 7.00
- pIC50 (Ba/F3 cells with EGFR WT): < 6.00
- pIC50 [2]: > 7.00

Compound: COc1c(F)cccc1Nc1c(-c2ccncc2C#C[C@]2(C)COCCN2C(=O)/C=C/CN(C)C)[nH]c2c1C(=O)NCC2 [compound 631]
- pIC50 [1]: > 7.00
- pIC50 (Ba/F3 cells with EGFR WT): 6.00 to 7.00
- pIC50 [2]: > 7.00

Compound: C=CC(=O)N1CCOC[C@@]1(C)C#Cc1cnccc1-c1[nH]c2c(c1Nc1cccc(F)c1OC)C(=O)NCC2 [compound 632]
- pIC50 [1]: > 7.00
- pIC50 (Ba/F3 cells with EGFR WT): 6.00 to 7.00
- pIC50 [2]: > 7.00

Compound: C=CC(=O)N1CCOC[C@@]1(C)C#Cc1cnccc1-c1[nH]c2c(c1Nc1cccc(Cl)c1OC)C(=O)NCC2 [compound 634]
- pIC50 [1]: > 7.00
- pIC50 (Ba/F3 cells with EGFR WT): 6.00 to 7.00
- pIC50 [2]: > 7.00
